Measurements as given in ChEMBL document CHEMBL1201862, “PubChem BioAssay data set” (2004).
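Each compound was tested at five concentrations against cells in 96-well plates for 48 hours. GI50 marks 50% less growth.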 Activity calls are given as the source filed them. Cut-off read from the data, not from the text of the source: active = GI50 up to about 1.1 µM and inactive = higher.

Assays:
Assay in all cases: NCI-60 cell line screen, 48 h
[1] = tested on: SN12C
[2] = tested on: KM12
[3] = tested on: UO-31
[4] = tested on: NCI-H460
[5] = tested on: HCT-116
[6] = tested on: SNB-19
[7] = tested on: HT-29
[8] = tested on: OVCAR-8
[9] = tested on: NCI-H23
[10] = tested on: NCI-H226
[11] = tested on: Malme-3M
[12] = tested on: M14
[13] = tested on: A549
[14] = tested on: SF-268
[15] = tested on: HCC 2998
[16] = tested on: HOP-92
[17] = tested on: COLO 205
[18] = tested on: CAKI-1

Measured: GI50

O=C1N[C@@H]2CCCC[C@@H]2C12CCCCC2
inactive: [1] > 100 µM | [2] > 100 µM | [3] > 100 µM | [4] > 100 µM | [5] > 100 µM | [6] > 100 µM | [7] > 100 µM | [8] > 100 µM | [9] > 100 µM | [10] > 100 µM | [11] > 100 µM | [12] > 100 µM | [13] > 100 µM | [14] > 100 µM | [15] > 100 µM

COc1nc(N)c(C(=O)CCl)c(=O)n1C
inactive: [1] 17.5 µM | [2] 14.3 µM | [3] 22 µM | [16] 4.66 µM | [4] 19 µM | [5] 10.9 µM | [6] 17.7 µM | [7] 16 µM | [8] 19 µM | [9] > 10 µM | [17] 10.6 µM | [10] 4.5 µM | [11] 10.5 µM | [18] 7.41 µM | [12] > 10 µM | [13] 18 µM | [14] 19.1 µM | [15] 9.68 µM

Cc1oc2c(C)c3oc(=O)cc(C)c3cc2c1CN1C(=O)C2OCCOCCOCCOCCOCCO[C@H]2C1=O (some centres undefined)
inactive: [1] > 100 µM | [2] > 100 µM | [3] > 100 µM | [16] > 100 µM | [4] > 100 µM | [5] > 100 µM | [6] > 100 µM | [7] > 100 µM | [8] > 100 µM | [9] > 100 µM | [17] > 100 µM | [10] > 100 µM | [11] > 100 µM | [18] > 100 µM | [12] > 100 µM | [13] > 100 µM | [14] > 100 µM | [15] > 100 µM

Cc1ccc2nc(/C(=C/c3ccc(/C=C(\NC(=O)c4ccccc4)c4nc5ccc(C)cc5[nH]4)c(C)c3)NC(=O)c3ccccc3)[nH]c2c1
inactive: [1] 5.5 µM | [2] 17.1 µM | [3] 9.12 µM | [16] 16.4 µM | [4] 13.2 µM | [5] 18.1 µM | [6] 31.2 µM | [7] 28.1 µM | [8] 7.01 µM | [9] 19.7 µM | [17] 25.1 µM | [10] 26.4 µM | [11] 7.29 µM | [18] 35.2 µM | [12] 23 µM | [13] 6.14 µM | [14] 3.45 µM

O=c1cccccc1NCCOCCNc1cccccc1=O
inactive: [1] > 100 µM | [2] > 100 µM | [3] > 100 µM | [4] > 100 µM | [5] > 100 µM | [6] > 100 µM | [7] > 100 µM | [8] > 100 µM | [9] > 100 µM | [17] > 100 µM | [10] > 100 µM | [11] > 100 µM | [18] > 100 µM | [12] > 100 µM | [13] > 100 µM | [14] > 100 µM | [15] > 100 µM

CCCCCCCCCCCCCCNCC(OC)OC
inactive: [1] 15.1 µM | [2] 13.3 µM | [3] 12.8 µM | [16] 10.2 µM | [4] 17.8 µM | [5] 13.1 µM | [6] 17.9 µM | [7] 3.78 µM | [8] 20.1 µM | [9] 20.2 µM | [17] 14.4 µM | [10] 17.1 µM | [11] 19.8 µM | [12] 14.1 µM | [13] 19.5 µM | [14] 18.5 µM | [15] 18.6 µM

NC(=O)CCC(N=C(N)c1csc(C2OC(CO)C(O)C2O)n1)C(=O)O (centres undefined)
inactive: [1] > 100 µM | [2] > 100 µM | [7] > 100 µM | [8] > 100 µM | [9] > 100 µM | [17] > 100 µM | [11] > 100 µM | [18] > 100 µM | [12] > 100 µM | [13] > 100 µM | [14] > 100 µM | [15] > 100 µM

CN(C)CCC1(C2=CCCC2)CC/C(=C\c2ccc3c(c2)OCO3)C1=O (centres undefined)
inactive: [1] 14.5 µM | [2] 15.8 µM | [3] 7.52 µM | [16] 11.4 µM | [4] 18.4 µM | [5] 13.2 µM | [6] 18.2 µM | [7] 12.2 µM | [8] 15.6 µM | [9] 18.4 µM | [17] 18.7 µM | [11] 15.6 µM | [12] 14.7 µM | [13] 16 µM | [14] 14.4 µM | [15] 15.8 µM

CC#N.O[C@@H]1CCCC[C@H]1O.O[C@@H]1CCCC[C@H]1O.[TeH2]
inactive: [1] 29.1 µM | [2] 42.7 µM | [3] 47 µM | [16] 26.2 µM | [4] 2.99 µM | [5] 13.4 µM | [6] 39.8 µM | [7] 28.2 µM | [8] 19 µM | [9] 20.8 µM | [17] > 100 µM | [10] 46.1 µM | [11] > 100 µM | [18] > 100 µM | [12] > 100 µM | [13] 41.5 µM | [14] > 100 µM | [15] > 100 µM

CCCCCCCC(=O)OC(COC(=O)Cc1ccccc1)COC(=O)C(C)(C)C (centres undefined)
inactive: [1] > 100 µM | [3] > 100 µM | [16] 32.8 µM | [4] > 100 µM | [5] > 100 µM | [6] > 100 µM | [8] > 100 µM | [9] > 100 µM | [17] 46.3 µM | [10] > 100 µM | [11] > 100 µM | [18] > 100 µM | [12] > 100 µM | [13] > 100 µM | [14] > 100 µM | [15] > 100 µM

Cn1c(=O)c2nc3c4ccccc4c(=O)n(C)c3nc2n(C)c1=O
inactive: [1] > 100 µM | [2] > 100 µM | [3] > 100 µM | [16] > 100 µM | [5] > 100 µM | [6] > 100 µM | [7] > 100 µM | [8] > 100 µM | [9] > 100 µM | [17] > 100 µM | [10] > 100 µM | [11] > 100 µM | [13] > 100 µM | [14] > 100 µM | [15] > 100 µM

COC(=O)c1sc(C(=O)OC)c2c1C[S+]([O-])C2
inactive: [2] > 100 µM | [3] > 100 µM | [16] > 100 µM | [5] > 100 µM | [6] > 100 µM | [7] > 100 µM | [8] > 100 µM | [9] > 100 µM | [17] > 100 µM | [10] > 100 µM | [11] > 100 µM | [18] > 100 µM | [12] > 100 µM | [13] > 100 µM | [14] > 100 µM | [15] > 100 µM

O=S(=O)(c1ccccc1)c1nccs1
inactive: [1] > 100 µM | [2] > 100 µM | [3] > 100 µM | [4] > 100 µM | [5] > 100 µM | [6] > 100 µM | [7] > 100 µM | [8] > 100 µM | [9] > 100 µM | [17] > 100 µM | [10] > 100 µM | [18] > 100 µM | [12] > 100 µM | [13] > 100 µM | [14] > 100 µM | [15] > 100 µM

Cn1cc(NC(=O)c2cc(NC(=O)CCCCCCCC(=O)Nc3cc(C(=O)Nc4cc(C(=O)NCCC(=N)N)n(C)c4)n(C)c3)cn2C)cc1C(=O)NCCC(=N)N
inactive: [1] 12.6 µM | [2] 7.53 µM | [3] > 100 µM | [16] > 100 µM | [4] 4.69 µM | [5] 17.9 µM | [6] 55.1 µM | [7] 63.1 µM | [8] 19.1 µM | [9] 17.3 µM | [17] 13.2 µM | [11] 5.75 µM | [18] 18.8 µM | [12] 27.9 µM | [13] 13.9 µM | [14] 19.8 µM | [15] 16.1 µM

C=C(C)C(=O)OC1C/C(CO)=C\C(O)C/C(C)=C/C2OC(=O)C(=C)C21 (centres undefined)
inactive: [1] 20 µM | [2] 19.2 µM | [3] > 100 µM | [16] 20.8 µM | [4] 17.7 µM | [5] 17.5 µM | [6] > 100 µM | [7] 17.6 µM | [8] 20.3 µM | [9] > 10 µM | [17] 17.1 µM | [10] 27.8 µM | [11] 20.6 µM | [18] 22.8 µM | [12] 17.7 µM | [13] 64.4 µM | [14] 22.2 µM | [15] > 10 µM

Cc1cccc(Cl)c1NC(N)=S
inactive: [1] > 100 µM | [2] > 100 µM | [3] 51.6 µM | [16] 35.4 µM | [4] 51.3 µM | [5] 17.4 µM | [6] 81.5 µM | [7] 43.4 µM | [8] 25.8 µM | [9] 83 µM | [17] > 100 µM | [10] 82.8 µM | [11] 52 µM | [18] 43.7 µM | [12] 87.5 µM | [13] 82.8 µM | [14] 51.3 µM | [15] > 100 µM
